≈ marks a conversion by molar mass, not a printed value. Where two headings read alike, the source gives them in different places.
Assays:
OVCAR-3 cell line = experiment: MTT cytotoxicity assay in OVCAR-3 ovarian cancer cells; assay type: cell-based, human; conditions: for IC50: Homo sapiens, OVCAR-3, 72 h incubation, MTT, mean ± SEM of three experiments; for Fold increase in cytotoxicity compared with (±)-UB006: OVCAR-3, ratio of IC50 values
Procedure: OVCAR-3 (human ovary carcinoma, ATC HTB-161, passage number 20) cells were cultured at 37 °C in a humidified atmosphere of 5% CO2 in Dulbecco’s Modified Eagle Medium containing 4.5 g/L of glucose and supplemented with glutamine, 10% heat-inactivated fetal bovine serum, 100 units/mL of penicillin, and […] of streptomycin. The culture was passaged twice a week through gentle trypsinization. Cells were seeded in 10 cm culture dishes and grown to confluence. An MTT cytotoxicity assay was performed to evaluate the cytotoxic effect of the compounds. A total of 2 × 10^3 cells/well were plated in 96-well plates in […] of culture medium. After 24 h, the medium was removed, and cells were incubated for 72 h in fresh medium with different concentrations (0.5–20 µM) of the different compounds. DMSO was used as a blank at a final concentration of 0.5%. The cells were then incubated for 3 h with […] of fresh medium and […] of MTT dissolved in phosphate-buffered saline to a final concentration of 5 mg/mL. Following treatment, the supernatants were carefully removed, and the MTT–formazan crystals were solubilized by adding […] of DMSO. The absorbance was measured at 570 nm.
Samples were incubated for 3 days with increasing concentrations of the different compounds, followed by an MTT assay to quantify cell survival.

[1] = Turbidimetry solubility assay; assay type: physicochemical; conditions: for solubility at 2 h: kinetic from dmso stock, 2 h at 37 °C, tested 25 μM–2 mM; for Solubility over tested concentrations: tested concentrations 25–2000 µM
Procedure: This effectively created two regression lines, with the intersection corresponding to the solubility of the compound.
The compounds were incubated for 2 h at 37 °C in a Thermoshaker (Biosan®, Riga, Latvia). Solubility was assessed through turbidimetry at 600 nm using Varioskan Lux® (Thermo Scientific®, Waltham, MA, USA). The approximate solubility was calculated by finding the intersection of the two regression lines formed before and after the curve tendency change due to precipitation of the compounds.

FAS [2] = target: T1, FAS (Rattus norvegicus, UniProt P12785); experiment: Spectrophotometric FAS activity assay in rat liver extracts; assay type: biochemical; conditions: rat liver extracts (210 µg), preincubated 30 min at 30 °C, mean ± SEM of three experiments
T1 construct: Cytosolic hepatic extracts obtained from rat (210 µg) were preincubated at 30 °C for 30 min; from tissue; host or cells: rat liver (cytosolic, FAS-enriched hepatic extract)
Procedure: For in vitro experiments, FAS was purified from rat liver following the protocol previously described by Linn. FAS activity was measured using a spectrophotometric method, as previously described. […] NADPH (121 µM) and acetyl-CoA (61 µM) in potassium phosphate buffer (pH 7.2) were added to preincubated enzyme and equilibrated at 37 °C for 3 min. The reaction was initiated through the addition of malonyl-CoA (55 µM). The total reaction volume was 330 µL. Oxidation of NADPH was measured at 340 nm at 37 °C for 10 min.
Figure 3 FAS activity assay in rat liver extracts. Representation of % of remaining FAS activity of spectrophotometric activity assay.

FAS [3] = target: T1, FAS; set-up: method as in PMID 23620264; conditions: previously described by the group; read-out: IC50 (FAS inhibition); cited from earlier work
[4] = set-up: method as in earlier work; conditions: cited from earlier work

T1 sequence (P12785 whole entry): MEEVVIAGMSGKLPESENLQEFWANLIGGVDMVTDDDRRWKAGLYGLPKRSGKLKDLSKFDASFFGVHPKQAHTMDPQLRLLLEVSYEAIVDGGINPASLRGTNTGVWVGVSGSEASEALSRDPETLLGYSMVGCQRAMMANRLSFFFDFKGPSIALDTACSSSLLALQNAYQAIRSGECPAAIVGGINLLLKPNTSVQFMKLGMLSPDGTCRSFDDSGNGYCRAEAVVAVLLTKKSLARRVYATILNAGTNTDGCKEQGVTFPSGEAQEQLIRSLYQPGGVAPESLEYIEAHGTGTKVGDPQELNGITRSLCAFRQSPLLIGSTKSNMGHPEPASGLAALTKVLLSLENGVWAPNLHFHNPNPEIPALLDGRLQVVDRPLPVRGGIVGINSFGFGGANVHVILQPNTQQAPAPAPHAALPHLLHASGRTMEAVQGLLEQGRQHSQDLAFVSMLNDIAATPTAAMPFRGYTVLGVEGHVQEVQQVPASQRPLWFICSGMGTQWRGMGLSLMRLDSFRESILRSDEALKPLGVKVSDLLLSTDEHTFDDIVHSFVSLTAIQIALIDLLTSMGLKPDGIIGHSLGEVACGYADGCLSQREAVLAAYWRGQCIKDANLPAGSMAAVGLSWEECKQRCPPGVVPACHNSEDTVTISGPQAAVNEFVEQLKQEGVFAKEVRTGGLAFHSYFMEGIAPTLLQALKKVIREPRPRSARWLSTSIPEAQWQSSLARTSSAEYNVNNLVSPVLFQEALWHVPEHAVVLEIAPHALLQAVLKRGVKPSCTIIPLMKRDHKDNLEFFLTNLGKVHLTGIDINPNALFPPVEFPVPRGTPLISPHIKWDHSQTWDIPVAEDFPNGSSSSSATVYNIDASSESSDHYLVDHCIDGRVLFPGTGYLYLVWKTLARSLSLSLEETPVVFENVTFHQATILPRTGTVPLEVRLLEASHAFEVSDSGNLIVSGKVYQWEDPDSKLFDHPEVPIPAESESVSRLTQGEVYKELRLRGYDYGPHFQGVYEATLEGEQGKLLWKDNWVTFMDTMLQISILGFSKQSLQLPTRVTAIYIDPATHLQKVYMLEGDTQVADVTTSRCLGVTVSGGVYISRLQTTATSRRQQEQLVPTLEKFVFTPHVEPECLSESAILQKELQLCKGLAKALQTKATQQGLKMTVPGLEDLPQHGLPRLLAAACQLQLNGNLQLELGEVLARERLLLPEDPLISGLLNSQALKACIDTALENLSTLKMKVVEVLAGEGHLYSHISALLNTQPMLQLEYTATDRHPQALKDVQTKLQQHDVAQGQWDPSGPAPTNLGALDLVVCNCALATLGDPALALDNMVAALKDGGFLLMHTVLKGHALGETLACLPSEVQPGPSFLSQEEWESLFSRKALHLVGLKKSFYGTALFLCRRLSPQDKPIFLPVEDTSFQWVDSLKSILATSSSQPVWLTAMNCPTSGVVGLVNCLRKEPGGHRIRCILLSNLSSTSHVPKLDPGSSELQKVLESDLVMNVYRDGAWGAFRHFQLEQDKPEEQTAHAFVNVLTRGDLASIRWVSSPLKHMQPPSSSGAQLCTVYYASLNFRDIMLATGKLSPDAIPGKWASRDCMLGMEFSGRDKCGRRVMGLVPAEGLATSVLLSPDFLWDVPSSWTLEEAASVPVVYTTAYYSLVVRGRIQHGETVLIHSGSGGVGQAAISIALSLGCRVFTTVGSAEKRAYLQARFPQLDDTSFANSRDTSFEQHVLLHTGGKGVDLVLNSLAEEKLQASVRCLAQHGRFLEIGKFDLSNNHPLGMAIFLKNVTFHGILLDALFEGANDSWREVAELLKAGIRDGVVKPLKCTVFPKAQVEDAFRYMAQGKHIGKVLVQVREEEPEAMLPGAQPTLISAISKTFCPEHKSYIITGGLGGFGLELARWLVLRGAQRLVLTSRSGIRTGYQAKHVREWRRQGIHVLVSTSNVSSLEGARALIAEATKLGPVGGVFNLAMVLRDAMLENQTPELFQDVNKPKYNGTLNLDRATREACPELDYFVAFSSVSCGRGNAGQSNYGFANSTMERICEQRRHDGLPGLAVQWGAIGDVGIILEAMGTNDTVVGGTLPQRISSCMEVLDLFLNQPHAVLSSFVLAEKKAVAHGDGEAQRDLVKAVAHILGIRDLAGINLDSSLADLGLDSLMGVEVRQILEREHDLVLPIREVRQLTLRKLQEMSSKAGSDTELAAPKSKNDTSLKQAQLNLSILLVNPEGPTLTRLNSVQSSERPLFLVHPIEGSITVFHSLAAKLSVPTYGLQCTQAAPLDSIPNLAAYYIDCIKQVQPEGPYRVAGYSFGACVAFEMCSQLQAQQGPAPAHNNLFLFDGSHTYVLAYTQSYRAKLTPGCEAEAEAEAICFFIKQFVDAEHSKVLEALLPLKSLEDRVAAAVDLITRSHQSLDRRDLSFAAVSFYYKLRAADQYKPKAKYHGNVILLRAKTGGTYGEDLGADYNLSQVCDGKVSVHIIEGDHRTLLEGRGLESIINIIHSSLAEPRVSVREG

SMILES | IC50 (OVCAR-3 cell line) [µM] | solubility at 2 h ([1]; water with 1% DMSO) [µM] | also measured
C=CC(O)[C@H]1C(=C)C(=O)O[C@H]1CCCCCCCC (mixture of isomers) [(±)-UB034, (4RS,5SR)-4-(1-hydroxyallyl)-3-methylene-5-octyldihydrofuran-2(3H)-one] | 12.3 ± 1.2 | 88 (≈ 23.4 µg/mL) | 
C=C1C(=O)O[C@@H](CCCCCCCC)[C@H]1[C@@H](O)CO (racemic) [(±)-UB035, (4RS,5SR)-4-((RS)-1,2-dihydroxyethyl)-3-methylene-5-octyldihydrofuran-2(3H)-one] | 2.1 ± 0.2 | > 2000 | Fold increase in cytotoxicity compared with (±)-UB006 (OVCAR-3 cell line): 2.5 fold; IC50 (FAS [2]): 565 ± 62 µM; Solubility over tested concentrations [1]: soluble at all tested concentrations
C=C1C(=O)O[C@@H](CCCCCCCC)[C@H]1C(C)O (mixture of isomers) [(±)-UB031, (4RS,5SR)-4-(1-hydroxyethyl)-3-methylene-5-octyldihydrofuran-2(3H)-one] | 3.6 ± 0.2 | 473 (≈ 120 µg/mL) | Fold increase in cytotoxicity compared with (±)-UB006 (OVCAR-3 cell line): 1.4 fold
C=C1C(=O)O[C@@H](CCCCCCCC)[C@H]1C(O)C(O)CO (mixture of isomers) [(±)-UB036, (4RS,5SR)-3-methylene-5-octyl-4-(1,2,3-trihydroxypropyl)dihydrofuran-2(3H)-one] | 5.5 ± 0.8 | > 2000 | IC50 (FAS [2]): 458 ± 54 µM; Solubility over tested concentrations [1]: soluble at all tested concentrations; Fold increase in solubility compared with (±)-UB006 ([1]; water with 1% DMSO): ≥ 4 fold
C=C1C(=O)O[C@@H](CCCCCCCC)[C@@H]1C(=O)O (racemic) [(±)-C75] |  |  | IC50 (FAS [3]): 460 ± 56 µM; Solubility in basic aqueous media ([4]; basic aqueous media): < 100 µg/mL; Solubility in water ([4]; water): insoluble in water
C=C1C(=O)O[C@@H](CCCCCCCC)[C@H]1C(O)CCCCCC (mixture of isomers) [(±)-UB033, (4RS,5SR)-4-(1-hydroxyheptyl)-3-methylene-5-octyldihydrofuran-2(3H)-one] | 13.6 ± 1.3 | 76 (≈ 24.7 µg/mL) | 
C=C1C(=O)O[C@@H](CCCCCCCC)[C@@H]1CO (racemic) [(±)-UB006, (4SR,5SR)-4-(hydroxymethyl)-3-methylene-5-octyldihydrofuran-2(3H)-one] |  | 550 (≈ 132 µg/mL) | 
C=C1C(=O)O[C@@H](CCCCCCCC)[C@H]1C(O)CC (mixture of isomers) [(±)-UB032, (4RS,5SR)-4-(1-hydroxypropyl)-3-methylene-5-octyldihydrofuran-2(3H)-one] | 10.7 ± 0.9 | 390 (≈ 105 µg/mL) | 

— article PMC11859419, “New UB006 Derivatives With Higher Solubility and Cytotoxic Activity in Ovarian Cancer Cells” (Pharmaceuticals, 2025)
